From paper PMC5602538, “Assessment of the Drug Interaction Potential of Unconjugated and GalNAc3-Conjugated 2′-MOE-ASOs” (Molecular Therapy. Nucleic Acids, 2017)
{GalNAc3} = trishexylamino-C6 triantennary GalNAc conjugate; e = 2'-O-(2-methoxyethyl) (MOE); d = 2'-deoxy (DNA)

How the values were obtained:
BSEP = system: T1, BSEP; test: BSEP substrate study in Sf9 membrane vesicles; assay type: in vitro ADME; conditions: 10 μM ASO, ATP vs AMP
T1 construct: purchased Life Technologies; host or cells: Sf9 cells (membrane vesicles)
Experimental: The test system included a 96-well flat bottom plate containing a suspension of vesicles and a 96-well glass fiber filtration plate. Transport experiments were initiated with the addition of Mg-ATP (for ATP-dependent BSEP uptake) or AMP (non-ATP-dependent uptake) to appropriate wells. Preparation of the flat-bottom plates included incubation with blocking buffer for 60 min at 37°C with orbital shaking at 120 rpm. After 60 min, the blocking buffer was completely removed and assay uptake buffer solutions were added. For BSEP inhibition studies, solutions contained 1 μM [^3H]-taurocholic acid as a substrate and either assay vehicle, test article (at 100 μM), or reference inhibitor (300 μM rifampicin). For BSEP substrate studies, solutions contained either 1 μM [^3H]-taurocholic acid or 10 μM test article. Vesicles were added to assay plates and incubated at 37°C with orbital shaking at 120 rpm for 15 min. To initiate the assay, either Mg-ATP or AMP was added to test wells at a final concentration of 5 mM. Plates were incubated at 37°C with orbital shaking at 120 rpm for 15 min. A glass fiber filtration plate was incubated with blocking buffer for 2 min. Vacuum was then applied to remove the blocking buffer, and ice-cold wash buffer was added to the filtration plate. Vesicular transport was quenched by adding ice-cold wash buffer. Assay samples were then mixed as diluted in wash buffer and 175 μL was transferred into the 96-well glass fiber filtration plate to separate vesicles. […] These samples were counted using a 1450 Microbeta (Perkin-Elmer). […] The test article was quantitated by LC-MS. […]
Signal to noise for the BSEP probe substrate was calculated by dividing the uptake of the probe substrate in BSEP-expressing vesicles in the presence of ATP by the uptake of the BSEP substrate in the vesicles in the presence of AMP. Percent inhibition in the presence of the test article or the reference inhibitors was calculated as: %inhibition=100−(100×(ATP−dependent,transportor−mediatedaccumulation)withinhibitor/(ATP−dependent,transportor−mediatedaccumulation)withoutinhibitor).

BCRP = system: T2, BCRP; test: BCRP substrate study, bi-directional flux in MDCK cells; assay type: in vitro ADME; conditions: 10 μM ASO, Papp B to A / Papp A to B
T2 construct: expressed in transfected cells; host or cells: MDCK-II cells
Experimental: MDCK-MDR1 cells and MDCK-II cells transfected with BCRP were washed with HBSS at 37°C. Wells of the culture plate served as the apical compartment, and 150 μL of HBSS solutions was added to the apical wells. These solutions also contain one of the following: vehicle (for probe substrate controls), 100 μM test article (for test article inhibition experiments), 1 μM Ko143 (for BCRP inhibition), or 3 μM elacridar (for P-gp inhibition). A 96-well receiver tray was prepared with each well containing 300 μL of buffer solution corresponding to the apical wells. Receiver tray wells served as the basal compartment. The plate and receiver tray were assembled and incubated at 37°C for 30 min. The solution was then aspirated from the apical compartment and the 96-well plate was removed from the receiver tray. Donor and receiver wells for inhibition or donor (containing substrate) and receiver (without substrate) wells for substrate studies were then prepared for bi-directional flux studies. For the probe substrate transport assays, HBSS in each donor well contained one of the following probe substrates: BCRP, 2 μM [^3H]-prazosin; or P-gp, 100 nM [^3H]-quinidine. For positive control inhibition assays, HBSS contained the reference inhibitor in both donor and receiver wells, with the probe substrate only in donor wells. […] These samples were counted on a 1450 Microbeta (PerkinElmer). For samples containing test articles, samples were quantitated using LC-MS.
For BCRP and P-gp, apparent permeability Papp was determined using the equation Papp=(Vr/(A×C0))×(Cr/Δt) whereby Papp is the apparent permeability, Vr is the volume of the receiver compartment (mL), C0 is the initial concentration of the donor solution, A is the monolayer area (cm^2), Cr is the receiver well concentration at the end of the incubation, and Δt represents the change in time from t = 0 (s). The efflux ratio (ER) was determined by dividing Papp in the B→A direction by that in the A→B direction as: ER=Papp(B→A)/Papp(A→B).

ISIS 304801: 20-mer (5-10-5) 2′-MOE gapmer PS backbone antisense inhibitor of apoC-III, sequence AGCTTCTTGTCCAGCTTTAT (sugars from the 5' end e5 d10 e5, all phosphorothioate, methylation of C not given here)
BSEP-mediated uptake relative to corresponding controls (BSEP): < 2 fold
Efflux ratio, BCRP (BCRP): ≤ 2.0

ISIS 420915: 20-mer 2′-MOE gapmer PS backbone antisense inhibitor of transthyretin, sequence TCTTGGTTACATGAAATCCC (all phosphorothioate, sugars by position and methylation of C not given here; 2'-MOE gapmer)
BSEP-mediated uptake relative to corresponding controls (BSEP): < 2 fold
Efflux ratio, BCRP (BCRP): ≤ 2.0

ISIS 681257: 20-mer 2′-MOE gapmer PS/PO mixed backbone ASO conjugated to 5′-trishexylamino GalNAc3, targets Lp(a), sequence TGCTCCGTTGGTGCTTGTTC (5' {GalNAc3}, sugars by position and backbone not given here; 2'-MOE gapmer with mixed PS/PO backbone)
BSEP-mediated uptake relative to corresponding controls (BSEP): < 2 fold
Efflux ratio, BCRP (BCRP): ≤ 2.0
